Measured values: patent US6914045B2, “Glycopeptide antibiotics” (Wyeth Holdings Corporation, priority 2001, dated 2005)

What was measured:
Test in all cases: in vitro antibacterial evaluation, MIC by broth dilution
Type in all cases: cell-based
Enterococcus sp. = settings: broth dilution, 18 hours at 35° C.
Outline: (§1)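 Inoculum 5×10^5 CFU/mL; concentrations 64 to 0.06 μg/mL; MIC defined as lowest inhibitory level. Conducted by broth dilution under NCCLS guidelines.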

Escherichia coli = test system: Escherichia coli
Outline: as §1

Staphylococcus sp. = settings: broth dilution, 18 hours at 35° C.; for MIC Staphylococcus aureus (GC 1131): strain GC 1131
Outline: as §1

Streptococcus sp. = settings: broth dilution, 18 hours at 35° C.
Outline: as §1

COc1cccc(C2OC3C(OC4C(CO)OC(Oc5ccc(CC6NC(=O)C(C(C)c7ccccc7)NC(=O)CNC(=O)C(CO)NC(=O)C(C(O)C7CNC(=N)N7C7OC(CO)C(O)C(O)C7O)NC(=O)C(C(O)C7CNC(=N)N7)NC6=O)cc5)C(O)C4O)OC(CO)C(O)C3O2)c1 (single isomer, unassigned) [Example 137b, Cyclo[glycyl-β-methylphenylalanyl-O-[4-O-[2,3-O-(3-methoxybenzylidene)hexopyranosyl]-hexopyranosyl]tyrosyl-3-(2-iminoimidazolidin-4-yl)seryl-3-(3-hexopyranosyl-2-iminoimidazolidin-4-yl)serylseryl]]
32 µg/mL: MIC Enterococcus avium (GC 4558) (Enterococcus sp.; Enterococcus avium (GC 4558)) | MIC Enterococcus faecalis (ATCC 29212) (Enterococcus sp.; Enterococcus faecalis (ATCC 29212)) | MIC Enterococcus faecalis (GC 2242) (Enterococcus sp.; Enterococcus faecalis (GC 2242)) | MIC Enterococcus faecalis (GC 2691) (Enterococcus sp.; Enterococcus faecalis (GC 2691)) | MIC Enterococcus faecalis (GC 4552) (Enterococcus sp.; Enterococcus faecalis (GC 4552)) | MIC Enterococcus faecalis (GC 4553) (Enterococcus sp.; Enterococcus faecalis (GC 4553)) | MIC Enterococcus faecalis (GC 6189) (Enterococcus sp.; Enterococcus faecalis (GC 6189)) | MIC Enterococcus faecium (GC 4556) (Enterococcus sp.; Enterococcus faecium (GC 4556)) | MIC Enterococcus faecalis (ATCC 29212) (Enterococcus sp.; strain ATCC 29212) | MIC Enterococcus faecalis (GC 2242) (Enterococcus sp.; strain GC 2242) | MIC Enterococcus faecalis (GC 2691) (Enterococcus sp.; strain GC 2691) | MIC Enterococcus faecalis (GC 4552) (Enterococcus sp.; strain GC 4552) | MIC Enterococcus faecalis (GC 4553) (Enterococcus sp.; strain GC 4553) | MIC Enterococcus faecium (GC 4556) (Enterococcus sp.; strain GC 4556) | MIC Enterococcus avium (GC 4558) (Enterococcus sp.; strain GC 4558) | MIC Enterococcus faecalis (GC 6189) (Enterococcus sp.; strain GC 6189)
64 µg/mL: MIC Enterococcus faecalis (GC 3059) (Enterococcus sp.; Enterococcus faecalis (GC 3059)) | MIC Enterococcus faecalis (GC 4554) (Enterococcus sp.; Enterococcus faecalis (GC 4554)) | MIC Enterococcus faecium (GC 2243) (Enterococcus sp.; Enterococcus faecium (GC 2243)) | MIC Enterococcus faecium (GC 2243) (Enterococcus sp.; strain GC 2243) | MIC Enterococcus faecalis (GC 3059) (Enterococcus sp.; strain GC 3059) | MIC Enterococcus faecalis (GC 4554) (Enterococcus sp.; strain GC 4554)
8 µg/mL: MIC Enterococcus faecium (GC 4557) (Enterococcus sp.; Enterococcus faecium (GC 4557)) | MIC Enterococcus faecium (GC 4557) (Enterococcus sp.; strain GC 4557) | MIC Staphylococcus aureus (GC 4541) (Staphylococcus sp.; strain GC 4541) | MIC Staphylococcus aureus-SMITH (GC 4543) (Staphylococcus sp.; strain GC 4543) | MIC Staphylococcus haemolyticus (GC 4546) (Staphylococcus sp.; strain GC 4546) | MIC Coagulase Negative Staphylococcus (GC 4547) (Staphylococcus sp.; strain GC 4547) | MIC Coagulase Negative Staphylococcus (GC 4549) (Staphylococcus sp.; strain GC 4549) | MIC Coagulase Negative Staphylococcus (GC 4551) (Staphylococcus sp.; strain GC 4551) | MIC Staphylococcus aureus-SMITH (GC 4543) (Staphylococcus sp.; strain SMITH GC 4543)
2 µg/mL: MIC Streptococcus pneumoniae (ATCC 6301) (Streptococcus sp.; Streptococcus pneumoniae (ATCC 6301)) | MIC Streptococcus pneumoniae (GC 4565) (Streptococcus sp.; Streptococcus pneumoniae (GC 4565)) | MIC Streptococcus pneumoniae (ATCC 6301) (Streptococcus sp.; strain ATCC 6301) | MIC Streptococcus pneumoniae (GC 4565) (Streptococcus sp.; strain GC 4565)
>64 µg/mL: MIC Escherichia coli (ATCC 25922) (Escherichia coli; strain ATCC 25922, 18 hours at 35° C.) | MIC Escherichia coli (GC 4559) (Escherichia coli; strain GC 4559, 18 hours at 35° C.)
4 µg/mL: MIC Escherichia coli (GC 4560) (Escherichia coli; strain GC 4560, 18 hours at 35° C.) | MIC Coagulase Negative Staphylococcus (GC 4548) (Staphylococcus sp.; strain GC 4548) | MIC Coagulase Negative Staphylococcus (GC 6257) (Staphylococcus sp.; strain GC 6257) | MIC Streptococcus agalactiae (GC 4564) (Streptococcus sp.; Streptococcus agalactiae (GC 4564)) | MIC Streptococcus pyogenes (GC 4563) (Streptococcus sp.; Streptococcus pyogenes (GC 4563)) | MIC Streptococcus pyogenes (GC 4563) (Streptococcus sp.; strain GC 4563) | MIC Streptococcus agalactiae (GC 4564) (Streptococcus sp.; strain GC 4564)
1 µg/mL: MIC Streptococcus pneumoniae (GC 1894) (Streptococcus sp.; Streptococcus pneumoniae (GC 1894)) | MIC Streptococcus pneumoniae (GC 1894) (Streptococcus sp.; strain GC 1894)
16 µg/mL: MIC Staphylococcus aureus (GC 1131) (Staphylococcus sp.; inoculum 5×10^5 CFU/mL) | MIC Staphylococcus aureus (ATCC 29213) (Staphylococcus sp.; strain ATCC 29213) | MIC Staphylococcus aureus (GC 1131) (Staphylococcus sp.) | MIC Staphylococcus aureus (GC 3051) (Staphylococcus sp.; strain GC 3051) | MIC Staphylococcus aureus (GC 3053) (Staphylococcus sp.; strain GC 3053) | MIC Staphylococcus aureus (GC 4542) (Staphylococcus sp.; strain GC 4542) | MIC Staphylococcus aureus (GC 4544) (Staphylococcus sp.; strain GC 4544) | MIC Staphylococcus aureus (GC 4545) (Staphylococcus sp.; strain GC 4545)
